The text below walks through data of US5869487A, “Pyrido[3,4-B]pyrazines for use as thrombin inhibitors” (Merck & Co., Inc., priority 1997, dated 1999).

A value given as a limit tells only on which side of the number the result lay.

In the assay the target is T1, human α-thrombin (Homo sapiens, UniProt P00734).
T1 construct: Assays of human α-thrombin
As to the kind of experiment: In vitro assay for determining proteinase inhibition (human α-thrombin). It is filed as biochemical. The settings on record: 25° C., 0.05M TRIS buffer pH 7.4, 0.15M NaCl, 0.1% PEG; sar-PR-pna or Z-GPR-afc substrate. The method, then: In vitro assay for determining proteinase inhibition
Assays of human α-thrombin and human trypsin were performed at 25° C. in 0.05M TRIS buffer pH 7.4, 0.15M NaCl, 0.1% PEG. Trypsin assays also contained 1 mM CaCl2.
In assays wherein rates of hydrolysis of a p-nitroanilide (pna) substrate were determined, a Thermomax 96-well plate reader was used to measure (at 405 nm) the time dependent appearance of p-nitroaniline. sar-PR-pna (sarcosine-Pro-Arg-p-nitroanilide) was used to assay human α-thrombin (Km =125 μM) and human trypsin (Km =59 μM). p-Nitroanilide substrate concentration was determined from measurements of absorbance at 342 nm using an extinction coefficient of 8270 cm^-1 M^-1.
In certain studies with potent inhibitors (Ki <10 nM) where the degree of inhibition of thrombin was high, a more sensitive activity assay was employed. In this assay the rate of thrombin catalyzed hydrolysis of the fluorogenic substrate Z-GPR-afc (Cbz-Gly-Pro-Arg-7-amino-4-trifluoromethylcoumarin) (Km =27 μM) was determined from the increase in fluorescence at 500 nm (excitation at 400 nm) associated with production of 7-amino-4-trifluoromethyl coumarin. Concentrations of stock solutions of Z-GPR-afc were determined from measurements of absorbance at 380 nm of the 7-amino-4-trifluoromethyl coumarin produced upon complete hydrolysis of an aliquot of the stock solution by thrombin.
Activity assays were performed by diluting a stock solution of substrate at least tenfold to a final concentration 0.5 Km into a solution containing enzyme or enzyme equilibrated with inhibitor. Times required to achieve equilibration between enzyme and inhibitor were determined in control experiments. Initial velocities of product formation in the absence (Vo) or presence of inhibitor (Vi) were measured. Assuming competitive inhibition, and that unity is negligible compared Km /[S], […] (where [S], [I], and e respectively represent the total concentrations, of substrate, inhibitor and enzyme), the equilibrium constant (Ki) for dissociation of the inhibitor from the enzyme can be obtained from the dependence of Vo /Vi on [I] shown in equation 1.
In the case of `Cc1nc(N)ccc1CNC(=O)Cn1c(C)cc2c(c1=O)NC(=O)[C@H](CC1CC1)N2`, the Ki (commonly the equilibrium dissociation constant of an inhibitor or competing ligand from its target) was < 1 nM. In the case of `Cc1cc2c(c(=O)n1CC(=O)NCc1cc(Cl)ccc1OCC(=O)NC1CC1)NC(=O)[C@H](Cc1ccccc1)N2` it was < 1 nM; in that of `Cc1nc(N)ccc1CNC(=O)Cn1c(C)cc2c(c1=O)NC(=O)[C@H](Cc1ccccc1)N2`, < 1 nM; in that of `Cc1nc(N)ccc1CNC(=O)Cn1c(C)cc2c(c1=O)NC(=O)[C@@H]1CCCCN21`, > 1 nM.

For `Cc1nc(N)ccc1CNC(=O)Cn1c(C)cc2c(c1=O)NC(=O)CN2Cc1ccccc1`, the inhibition constant (Ki) is > 1 nM. In the case of `Cc1nc(N)ccc1CNC(=O)Cn1c(C)cc2c(c1=O)NC(=O)[C@H](CC1CC1)N2C` it was < 1 nM; in that of `Cc1cc2c(c(=O)n1CC(=O)NCc1ccc(N)nc1)NC(=O)[C@H](CC1CC1)N2C`, < 1 nM. In the case of `Cc1cc2c(c(=O)n1CC(=O)NCc1ccccc1OCC(=O)NC1CC1)NC(=O)[C@H](CC1CC1)N2C` it was < 1 nM.
